Converted amounts (≈) assume the structure as drawn. Like-named read-outs stand apart in the source and are kept apart here.
Experiments:
[1] = tested on: FLU-resistant C. neoformans strain BPY22; assay: microbe, parasite or virus in culture; type: cell-based; conditions: for MIC: Cryptococcus neoformans, 48 h
[2] = tested on: FLU-sensitive (DSY4982) and FLU-resistant (BPY22 and BPY17) C. neoformans isolates; type: cell-based

| SMILES | activity against FLU-resistant strain (in words) [1] | mechanism of inhibition (fungicidal vs fungistatic) [2] | MIC ([1]; read-out: MIC-0) [µg/mL] | MIC ([1]; read-out: MIC-2) [µg/mL] |
| --- | --- | --- | --- | --- |
| COC(=O)[C@@H]1C[C@@H]2c3cccc4c3[C@H](C[C@H]2N(C)C1)CN4C(=O)OCC(Cl)(Cl)Cl [NGx16] | weaker activity | fungicidal effect | – | – |
| COC(=O)[C@@H]1C[C@@H]2c3c([N+](=O)[O-])ccc4c3[C@H](C[C@H]2N(C)C1)CN4C(=O)OCC(Cl)(Cl)Cl [NGx19] | weaker activity | – | – | – |
| CN1C[C@H](C(=O)Nc2cccc(C(F)(F)F)c2)C[C@@H]2c3cccc4c3[C@H](C[C@H]21)CN4C(=O)OC(C)(C)C [NGx03] | – | fungicidal effect | 32 (≈ 62.1 µM) | 16 (≈ 31 µM) |

Source: PMC5147771, “High-Resolution Genetics Identifies the Lipid Transfer Protein Sec14p as Target for Antifungal Ergolines” (PLoS Genetics, 2016)
